Square brackets hold non-standard residues; d marks the D form. Peptide text beside a SMILES is read from it. Api(1-amidino) = N=C(N)N1CCC(N)(C(=O)O)CC1; d2Nal = N[C@H](Cc1ccc2ccccc2c1)C(=O)O; Api = NC1(C(=O)O)CCNCC1; PEG2 = NCCOCCOCCC(=O)O; azaGly = NNC(=O)O; Sar = CNCC(=O)O
Target: human kisspeptin receptor (Homo sapiens (Human), UniProt Q969F8)
Assay: Human KISS1R binding assay (membrane competition binding)
Settings: 90 min at room temperature; competition with 0.2 nM [125I]-metastin (45-54); Flp-In T-Rex 293 kisspeptin membranes; metal complexes nonradioactive Ga, In, Lu; read-out: hKiSSR Binding Ki (90 min)
Outline: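 Membranes from tetracycline-induced (48 h) Flp-In T-Rex 293 cells expressing receptor, 5–10 μg, incubated 90 min at room temperature with 0.2 nM [125I]-metastin (45-54) and competitor (typically 0–10,000 nM) in Tris/Mg/Ca/EGTA/0.1% BSA, pH 7.4. Filtration, washing, counting; Ki by non-linear regression.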

Chain of human kisspeptin receptor (Q969F8 whole entry): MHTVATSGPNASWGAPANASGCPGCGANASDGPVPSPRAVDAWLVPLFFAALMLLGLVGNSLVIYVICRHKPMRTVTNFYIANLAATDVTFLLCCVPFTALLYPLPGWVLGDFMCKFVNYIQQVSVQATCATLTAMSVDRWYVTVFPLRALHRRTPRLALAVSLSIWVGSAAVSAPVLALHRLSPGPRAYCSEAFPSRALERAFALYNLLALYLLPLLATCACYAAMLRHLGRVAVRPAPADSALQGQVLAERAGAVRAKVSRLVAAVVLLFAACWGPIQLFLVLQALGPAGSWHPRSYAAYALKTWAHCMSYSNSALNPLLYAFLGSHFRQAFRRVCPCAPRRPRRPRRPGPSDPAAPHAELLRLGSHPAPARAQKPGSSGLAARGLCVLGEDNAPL

Ki [nM] | Structure (SMILES)
< 10 | CNCC(=O)N1CCC(NC(=O)[C@H](CC(C)C)NC(=O)NNC(=O)[C@H](Cc2ccccc2)NC(=O)[C@@H](NC(=O)[C@H](CC(N)=O)NC(=O)[C@@H](Cc2ccc3ccccc3c2)NC(=O)[C@H](N)Cc2ccc(O)cc2)[C@@H](C)O)(C(=O)N[C@@H](Cc2ccccc2)C(N)=O)CC1 [Compound 406] (H-[dY][d2Nal]NTF[azaGly]L[Api](Sar)F-NH2)
< 10 | CNCC(=O)N1CCC(NC(=O)[C@H](CC(C)C)NC(=O)NNC(=O)[C@H](Cc2ccccc2)NC(=O)[C@@H](NC(=O)[C@H](CC(N)=O)NC(=O)[C@@H](Cc2ccc3ccccc3c2)NC(=O)[C@H](N)Cc2ccc(O)cc2)[C@@H](C)O)(C(=O)N[C@@H](Cc2ccc(O)cc2)C(N)=O)CC1 [Compound 407] (H-[dY][d2Nal]NTF[azaGly]L[Api](Sar)Y-NH2)
< 10 | CNCC(=O)N1CCC(NC(=O)[C@H](CC(C)C)NC(=O)NNC(=O)[C@H](Cc2ccccc2)NC(=O)[C@@H](NC(=O)[C@H](CC(N)=O)NC(=O)[C@@H](Cc2ccc3ccccc3c2)NC(=O)[C@H](N)Cc2ccc(O)cc2)[C@@H](C)O)(C(=O)N[C@@H](Cc2c[nH]c3ccccc23)C(N)=O)CC1 [Compound 408] (H-[dY][d2Nal]NTF[azaGly]L[Api](Sar)W-NH2)
< 10 | CC(C)C[C@H](NC(=O)NNC(=O)[C@H](Cc1ccccc1)NC(=O)[C@@H](NC(=O)[C@H](CC(N)=O)NC(=O)[C@@H](Cc1ccc2ccccc2c1)NC(=O)[C@H](N)Cc1ccc(O)cc1)[C@@H](C)O)C(=O)NC1(C(=O)N[C@@H](Cc2ccccc2)C(N)=O)CCN(C(=N)N)CC1 [Compound 409] (H-[dY][d2Nal]NTF[azaGly]L[Api(1-amidino)]F-NH2)
< 10 | CC(C)C[C@H](NC(=O)NNC(=O)[C@H](Cc1ccccc1)NC(=O)[C@@H](NC(=O)[C@H](CC(N)=O)NC(=O)[C@@H](Cc1ccc2ccccc2c1)NC(=O)[C@@H](Cc1ccc(O)cc1)NC(=O)CCOCCOCCN)[C@@H](C)O)C(=O)NC1(C(=O)N[C@@H](Cc2c[nH]c3ccccc23)C(N)=O)CCN(C(=N)N)CC1 [Compound 410] (H-[PEG2][dY][d2Nal]NTF[azaGly]L[Api(1-amidino)]W-NH2)
< 10 | CC(C)C[C@H](NC(=O)NNC(=O)[C@H](Cc1ccccc1)NC(=O)[C@@H](NC(=O)[C@H](CC(N)=O)NC(=O)[C@@H](Cc1ccc2ccccc2c1)NC(=O)[C@H](N)Cc1ccc(O)cc1)[C@@H](C)O)C(=O)NC1(C(=O)N[C@@H](Cc2c[nH]c3ccccc23)C(N)=O)CCN(C(=N)N)CC1 [Compound 411] (H-[dY][d2Nal]NTF[azaGly]L[Api(1-amidino)]W-NH2)

Source: US20250312499A1, “KISSPEPTIN RECEPTOR (KISS1R) TARGETED THERAPEUTICS AND USES THEREOF” (priority 2024, published 2025)
